Patent US11179430B2, “Extracts from mother-of-thyme and the use i'hereof” (Finzelberg GmbH & Co. KG, priority 2012, dated 2021)

System: TNBS-induced colitis in Wistar rats
Experiment: In vivo TNBS test model (colitis in rats)
Protocol: Female Wistar rats (200-210 g) were kept in Makrolon cages in air-conditioned animal quarters with 12 hours light-dark cycle, fed standard rodent food and water ad libitum throughout the experiment. The rats are randomly assigned to six groups (n=10). Two groups (healthy and sick controls) obtain 1 ml of the administration medium orally, and the test groups obtain either 100 mg/kg BW of a wild thyme extract formulation according to Example 4, or 70 mg/kg BW of a wild thyme extract formulation according to Example 3, or 30 mg/kg BW of the prebiotic Nutriose, or 100 mg/kg BW sulfasalazine (SAZ) in the reference group. All test substances are administered once a day as a solution or suspension through a gastric tube for a period of 7 days. The administration of the test substances starts at the same day as the colitis induction. For this purpose, the rats are fasted over night, and then a colitis is induced in both the sick control group and the treatment groups with TNBS as follows: During a halothane anesthesia, a solution (10 mg of TNBS dissolved in 0.25 ml of ethanol 50% v/v) is injected from a Teflon cannula through the anus 8 cm deep into the intestine. The rats of the healthy control group are administered 0.25 ml of a PBS solution instead of the TNBS solution. The body weight, the water and food intake and the stool consistency are recorded daily during the testing period. One week after the start of the colitis induction, all the rats are sacrificed by an overdose of halothane, and the intestine is removed for evaluating the intestinal damage. The intestinal segment is cleaned from fat and mesenterium, and transferred to a filter paper. Each specimen is weighed, and its length is measured under a constant load (2 g), and the weight-to-length ratio is determined therefrom. Independently of the treatment employed, the intestine is evaluated macroscopically for visible damage on a scale of from 0 to 10 by two observers by means of previously defined criteria, which take the extension and severity of the damage into account. […]

In the case of O=C(O)c1cc(/N=N/c2ccc(S(=O)(=O)Nc3ccccn3)cc2)ccc1O [Sulfasalazine, sulfasalazine], the IL-6 (100 mg/kg oral once a day, 7 days, colitic control 281.8 ± 26.8) is reported as 222.0 ± 16.1 ng/g, the MPO (100 mg/kg oral once a day, 7 days, colitic control 8969.6 ± 1402.0) is reported as 5591.5 ± 537.0 mU/g and the “significant influence on the parameters of Table 3, in words” value (doses as in Table 3, vs. colitic control) is reported as “could not show significant improvements in all parameters”.
